Our source for the Activity values is patent US20120149741A1, “TREATMENT OF DUCHENNE MUSCULAR DYSTROPHY” (Biomarin IGA Limited, priority 2007, published 2012).

The test relates to Utrophin A promoter linked to a luciferase reporter gene in mdx mouse H2K cells. Briefly: Luciferase reporter assay (murine H2K cells). The format is cell-based. Particulars: luciferase level, H2K/mdx/Utro A reporter cells, final concentration of 10 μM, 48 hrs. How it is done:
The cell line used for the screen is an immortalized mdx mouse H2K cell line that has been stably transfected with a plasmid containing fragment of the Utrophin A promoter including the first untranslated exon linked to a luciferase reporter gene (see FIG. 1).
Under conditions of low temperature and interferon containing media, the cells remain as myoblasts. These are plated into 96 well plates and cultured in the presence of compound for three days. The level of luciferase is then determined by cell lysis and reading of the light output from the expressed luciferase gene utilising a plate luminometer.
The H2K/mdx/Utro A reporter cell line was passaged twice a week until ≦30% confluent. The cells were grown at 33° C. in the presence of 10% CO2.
To remove the myoblasts for platting, they were incubated with Trypsin/EDTA until the monolayer started to detach.
• DMEM Gibco 41966 • 20% FCS • 1% Pen/Strep • 1% glutamine • 10 mls Chick embryo extract • Interferon (1276 905 Roche) Add fresh 10 μl/50 mls medium
The H2K/mdx/Utro A reporter cell line cells were plated out into 96 well plates (Falcon 353296, white opaque) at a density of approximately 5000 cells/well in 190 μl normal growth medium. The plates were then incubated at 33° C. in the presence of 10% CO2 for 24 hrs.
Compounds were dosed by adding 10 μl of diluted compound to each well giving a final concentration of 10 μM. The plates were then incubated for a further 48 hrs.
Cells were then lysed in situ following the manufacture's protocols (Promega Steady-Glo Luciferase Assay System (E2520), then counted for 10 seconds using a plate luminometer (Victor1420).
Compounds for screening were stored at −20° C. as 10 mM stocks in 100% DMSO until required.
(In general: A reporter such as luciferase makes a cellular process visible.)
Regarding `CC(C)C(=O)Nc1ccc2cnn(-c3ccc4ccccc4c3)c2c1` [Example 1, N-(1-(naphthalen-2-yl)-1H-indazol-6-yl)isobutyramide], the Activity result is reported as “+ (Up to 200% relative to control)”.
Turning to `CC(C)C(=O)Nc1ccc2cn(-c3ccc4ccccc4c3)nc2c1` [Example 2, N-(2-(naphthalen-2-yl)-2H-indazol-6-yl)isobutyramide], the Activity result was “++++ (Above 401% relative to control)”.
As for `CCS(=O)(=O)c1ccc2cn(-c3ccc(Cl)cc3)nc2c1` [Example 3, 2-(4-chlorophenyl)-6-(ethylsulfonyl)-2H-indazole], the entry is “++ (Between 201% and 300% relative to control)”; as for `CCS(=O)(=O)c1ccc2nn(-c3ccc4ccccc4c3)nc2c1` [Example 4, 5-(ethylsulfonyl)-2-(naphthalen-2′-yl)-2H-benzo[d][1,2,3]triazole], “++ (Between 201% and 300% relative to control)”.
